Measurements as given in patent US11319324B2, “Pyrazolo-pyrrolo-pyrimidine-dione derivatives as P2X3 inhibitors” (Bayer Aktiengesellschaft, priority 2017, dated 2022).

Key:
Format in all cases: cell-based
human P2X2/3 receptors = target: T1, human P2X2/3 receptors (Homo sapiens, UniProt P56373+Q9UBL9); assay: Intracellular calcium measurement, antagonist activity at human P2X2/3 receptors (hP2X23 1321N1), Fluo8; conditions: for IC50: column 4); 1321N1 cells, human P2X2/3, Fluo8, agonist ATP at EC50; read-out: 4) hP2X2/3 IC50 [nM] (1321N1); for hP2X23/hP2X3* Selectivity (1321N1): ratio of column 4) hP2X2/3 to column 3) hP2X3, 1321N1
T1 construct: expressed in transfected cells; host or cells: human astrocytoma 1321N1 (1312N1 [sic])
T1 sequence (P56373 1-397): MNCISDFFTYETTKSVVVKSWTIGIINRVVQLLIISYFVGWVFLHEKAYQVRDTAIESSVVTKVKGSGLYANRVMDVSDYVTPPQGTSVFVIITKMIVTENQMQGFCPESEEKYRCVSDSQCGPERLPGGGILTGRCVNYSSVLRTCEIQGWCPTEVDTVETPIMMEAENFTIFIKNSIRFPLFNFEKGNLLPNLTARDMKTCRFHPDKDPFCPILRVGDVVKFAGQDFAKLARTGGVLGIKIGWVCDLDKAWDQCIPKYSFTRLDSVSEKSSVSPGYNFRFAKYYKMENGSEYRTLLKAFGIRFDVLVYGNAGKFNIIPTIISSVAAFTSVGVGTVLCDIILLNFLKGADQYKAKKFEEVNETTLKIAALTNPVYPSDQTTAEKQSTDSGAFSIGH
T1 sequence (Q9UBL9 1-471): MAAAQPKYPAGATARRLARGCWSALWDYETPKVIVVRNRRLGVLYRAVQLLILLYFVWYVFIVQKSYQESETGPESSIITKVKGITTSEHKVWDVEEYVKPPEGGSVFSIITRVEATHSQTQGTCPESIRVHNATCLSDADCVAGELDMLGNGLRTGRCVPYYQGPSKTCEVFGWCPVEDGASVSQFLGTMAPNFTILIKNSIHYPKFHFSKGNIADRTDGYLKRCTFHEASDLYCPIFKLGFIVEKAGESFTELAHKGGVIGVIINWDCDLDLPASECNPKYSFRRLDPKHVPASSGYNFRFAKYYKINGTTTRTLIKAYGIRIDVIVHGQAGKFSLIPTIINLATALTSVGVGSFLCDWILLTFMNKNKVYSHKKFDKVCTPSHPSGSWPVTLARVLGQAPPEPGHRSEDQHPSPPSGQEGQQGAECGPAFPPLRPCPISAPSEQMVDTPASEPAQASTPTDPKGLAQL
Method in brief: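 Antagonism was assessed by decrease of the Fluo8 calcium signal after ATP challenge, with ATP dosed at the EC50 of whichever receptor was tested. Stable 1321N1 astrocytoma lines expressed either human P2X3 or both P2X2 and P2X3, and were dye-loaded 60 min before a 10 min compound incubation.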

human P2X3 receptor [1] = target: T2, human P2X3 receptor (Homo sapiens, UniProt P56373); assay: Intracellular calcium measurement to assess antagonist activity at human P2X3 receptors (hP2X3 CHO), photina luminescence; set-up: expressed in transfected cells; host or cells: Chinese hamster ovary (CHO) cells; conditions: column 2), CHO cells, agonist α,β-methylene-ATP at EC50
T2 sequence (P56373 1-397): T1 sequence (P56373 1-397)
Method in brief: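 Antagonism read as lowered photina luminescence after agonist stimulation in recombinant hP2X3/photina CHO cells. Cells seeded one day earlier (30 °C) and reconstituted with 5 μg/ml coelenterazine in 2 mM Ca-tyrode buffer for 3 h at 37 °C before measurement.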

human P2X3 receptor [2] = target: T2, human P2X3 receptor; assay: Intracellular calcium measurement, antagonist activity at human P2X3 receptors (hP2X3 1321N1), Fluo8; set-up: expressed in transfected cells; host or cells: human astrocytoma 1321N1 (1312N1 [sic]); conditions: column 3); 1321N1 cells, human P2X3, Fluo8, agonist ATP at EC50
Protocol: 3) And 4) Intracellular Calcium Measurement to Compare Antagonist Activity at Human P2X3 Receptors (hP2X3 1321N1) and at Human P2X2/3 Receptors (hP2X23 1321N1)
The comparison of antagonistic activity at the P2X3 versus the P2X2/3 receptor of the compounds of the invention were performed by use of recombinant cell lines. These cell lines derived originally from the human astrocytoma cell line […] (Macintyre E H, Pontén J, Vatter A E. Acta Pathol Microbiol Scand A. 1972; 80(2):267-83). The cell lines are stably transfected with the human P2X3 receptor forming homotrimeric P2X3 receptors or are co-transfected with P2X2 and P2X3 forming heterotrimeric P2X2/3 receptors. Stimulation of the receptors with the agonist ATP leads to a conformational change of the receptors and influx of extracellular calcium ions through the open ion channel. The cytoplasmatic calcium transient is detected via the calcium sensitive dye Fluo8. The strength of Fluo8 fluorescence signal corresponds to the level of receptor activation. An inhibitor would decrease the signal depending on its potency and concentration. Fluorescence was measured by use of a suitable fluorescence reader.
On the day before the assay, the cells were plated in culture medium (DMEM high glucose, 10% FCS, 1% MEM non-essential amino acids, 4 mM Glutamax) in 384-well poly-D-lysine coated microtiter plates and kept in a cell incubator (96% humidity, 5% v/v CO2, 37° C.). On the day of the assay medium was exchanged by Fluo8 containing buffer and incubated for 60 minutes. Test compounds were added at various concentrations and plates were incubated for 10 minutes. In the fluorescence reader a 3 seconds baseline measurement was performed and the agonist ATP was applied at EC50 concentration of the respective receptor during constant fluorescence measurement for 120 seconds.

Structure (SMILES)	IC50 (human P2X2/3 receptors) [nM]	hP2X23/hP2X3* Selectivity (1321N1) (human P2X2/3 receptors)	IC50 (human P2X3 receptor [1]) [nM]	IC50 (human P2X3 receptor [2]) [nM]
CCc1cc2n(CC(=O)Nc3ccc(F)cn3)c3c(c(=O)n2n1)CN(CC1CCOCC1)C3=O [Example 83]	> 32000	>48	370	665
COCc1cc2n(CC(=O)Nc3ccc(F)cn3)c3c(c(=O)n2n1)CN(C(C)C)C3=O [Example 57]	> 32000	>121	125	265
COC[C@H](C)N1Cc2c(n(CC(=O)Nc3ccc(F)cn3)c3cc(C4CCC4)nn3c2=O)C1=O [Example 110]	3050	254	7	12
CC(C)N1Cc2c(n(CC(=O)Nc3ccc(F)cn3)c3cc(NC4CCCC4)nn3c2=O)C1=O [Example 168]	2350	250	17	9
CCc1cc2n(CC(=O)Nc3ccc(F)cn3)c3c(c(=O)n2n1)CN(C[C@H]1CN(C2CCC2)CCO1)C3=O [Example 257]	660	12	54	57
CCc1cc2n(CC(=O)Nc3ccc(F)cn3)c3c(c(=O)n2n1)CN(CC1CCN(C(=O)OC(C)(C)C)CC1)C3=O [Example 89]	6550	49	64	135
CC(C)N1Cc2c(n(CC(=O)Nc3ccc(F)cn3)c3cc(C(=O)NCC4CC4)nn3c2=O)C1=O [Example 187]	2300	112	21	21
COC[C@H](C)N1Cc2c(n(CC(=O)Nc3ccc(F)cn3)c3cc(C(=O)NCC(F)F)nn3c2=O)C1=O [Example 197]	9800	291	19	34

Continued, values first:

IC50 (human P2X2/3 receptors) [nM]	hP2X23/hP2X3* Selectivity (1321N1) (human P2X2/3 receptors)	IC50 (human P2X3 receptor [1]) [nM]	IC50 (human P2X3 receptor [2]) [nM]	Structure (SMILES)
6950	56	97	124	CC(C)N1Cc2c(n(CC(=O)Nc3ccc(F)cn3)c3cc(C#N)nn3c2=O)C1=O [Example 146, 2-[2-cyano-5,8-dioxo-6-(propan-2-yl)-5,6,7,8-tetrahydro-4H-pyrazolo[1,5-a]pyrrolo[3,4-d]pyrimidin-4-yl]-N-(5-fluoropyridin-2-yl)acetamide]
4650	44	115	105	CC(C)NC(=O)Nc1cc2n(CC(=O)Nc3ccc(F)cn3)c3c(c(=O)n2n1)CN(C(C)C)C3=O [Example 290, 2-[5,8-dioxo-6-(propan-2-yl)-2-{[(propan-2-yl)carbamoyl]amino}-5,6,7,8-tetrahydro-4H-pyrazolo[1,5-a]pyrrolo[3,4-d]pyrimidin-4-yl]-N-(5-fluoropyridin-2-yl)acetamide]
11300	26	400	440	CCc1cc2n(CC(=O)Nc3ccc(F)cn3)c3c(c(=O)n2n1)CN(C[C@H]1CN(C)CCO1)C3=O [Example 255, 2-(2-ethyl-6-{[(2R)-4-methylmorpholin-2-yl]methyl}-5,8-dioxo-5,6,7,8-tetrahydro-4H-pyrazolo[1,5-a]pyrrolo[3,4-d]pyrimidin-4-yl)-N-(5-fluoropyridin-2-yl)acetamide]
> 32000	>188	175	170	CC(C)N1Cc2c(n(CC(=O)Nc3ccc(F)cn3)c3cc(N4CCOCC4)nn3c2=O)C1=O [Example 180, N-(5-fluoropyridin-2-yl)-2-[2-(morpholin-4-yl)-5,8-dioxo-6-(propan-2-yl)-5,6,7,8-tetrahydro-4H-pyrazolo[1,5-a]pyrrolo[3,4-d]pyrimidin-4-yl]acetamide]
